pIC50: −log10 of the molar value. Values joined by “and” are separate entries in the source; they are usually repeats but may differ in a detail not shown here. Identical values can stand only once. A value given as a limit tells only on which side of the number the result lay.

Assay [1] concerns the target T1, CK1γ1 (Homo sapiens, UniProt Q9HCP0).
T1 construct: purchased Eurofins
Nature of the assay: Eurofins kinase enzymatic radiometric assay, CK1γ1. As to conditions: Km = ATP, 9-pt curve in duplicate. The format is biochemical. The text has this: (§1) Details related to the substrate used, protein constructs, controls, and assay protocol for each kinase assay are included on the Eurofins website: https://www.eurofinsdiscoveryservices.com/.

Assay [2] deals with T2, CK1γ2 (Homo sapiens, UniProt P78368).
T2 construct: purchased Eurofins
T2 sequence (P78368 whole entry): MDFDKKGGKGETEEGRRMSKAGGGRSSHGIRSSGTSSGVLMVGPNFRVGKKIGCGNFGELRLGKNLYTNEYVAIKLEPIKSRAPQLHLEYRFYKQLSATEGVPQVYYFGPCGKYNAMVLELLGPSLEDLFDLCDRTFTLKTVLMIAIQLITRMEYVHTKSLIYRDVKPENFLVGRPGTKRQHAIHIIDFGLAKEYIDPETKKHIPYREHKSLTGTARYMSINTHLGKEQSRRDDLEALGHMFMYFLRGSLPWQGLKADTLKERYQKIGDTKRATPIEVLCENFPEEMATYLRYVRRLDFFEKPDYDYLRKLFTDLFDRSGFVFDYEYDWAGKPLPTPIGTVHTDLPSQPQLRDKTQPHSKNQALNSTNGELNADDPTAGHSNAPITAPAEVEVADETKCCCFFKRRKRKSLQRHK
The assay can be described thus: Eurofins kinase enzymatic radiometric assay, CK1γ2. The format is biochemical. As to conditions: Km = ATP, 9-pt curve in duplicate.
Description: as §1

The target of another assay is T3, GSK3β (Homo sapiens, UniProt P49841).
T3 construct: purchased Eurofins DiscoverX Corporation
T3 sequence (P49841 whole entry): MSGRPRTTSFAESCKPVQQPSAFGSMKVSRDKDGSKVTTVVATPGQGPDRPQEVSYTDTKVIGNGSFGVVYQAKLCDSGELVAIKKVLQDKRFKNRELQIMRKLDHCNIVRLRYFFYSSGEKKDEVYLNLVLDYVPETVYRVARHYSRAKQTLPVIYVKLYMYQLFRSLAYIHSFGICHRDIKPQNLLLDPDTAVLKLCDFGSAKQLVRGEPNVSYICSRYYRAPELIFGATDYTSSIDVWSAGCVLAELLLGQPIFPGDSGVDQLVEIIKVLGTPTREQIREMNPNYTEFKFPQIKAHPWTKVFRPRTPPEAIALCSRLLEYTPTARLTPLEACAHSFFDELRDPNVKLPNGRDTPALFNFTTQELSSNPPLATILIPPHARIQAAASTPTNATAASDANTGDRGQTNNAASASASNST
Nature of the assay: scanMAX binding assay, GSK3β. As to conditions: Percent of Control; legend and method: 1 μM. The source says: (§2) As described previously, this commercial assay platform screens against 403 WT human kinases in binding assays and provides PoC values ([73]).

The target in assay [3] is T2, CK1γ2. The assay can be described thus: scanMAX binding assay, CK1γ2. Conditions: Percent of Control; legend and method: 1 μM; read-out: CK1γ2 PoC @ 1 µM.
Description: as §2

The target in a further assay is T4, CK1γ3 (Homo sapiens, UniProt Q9Y6M4).
T4 construct: purchased Eurofins
T4 sequence (Q9Y6M4 whole entry): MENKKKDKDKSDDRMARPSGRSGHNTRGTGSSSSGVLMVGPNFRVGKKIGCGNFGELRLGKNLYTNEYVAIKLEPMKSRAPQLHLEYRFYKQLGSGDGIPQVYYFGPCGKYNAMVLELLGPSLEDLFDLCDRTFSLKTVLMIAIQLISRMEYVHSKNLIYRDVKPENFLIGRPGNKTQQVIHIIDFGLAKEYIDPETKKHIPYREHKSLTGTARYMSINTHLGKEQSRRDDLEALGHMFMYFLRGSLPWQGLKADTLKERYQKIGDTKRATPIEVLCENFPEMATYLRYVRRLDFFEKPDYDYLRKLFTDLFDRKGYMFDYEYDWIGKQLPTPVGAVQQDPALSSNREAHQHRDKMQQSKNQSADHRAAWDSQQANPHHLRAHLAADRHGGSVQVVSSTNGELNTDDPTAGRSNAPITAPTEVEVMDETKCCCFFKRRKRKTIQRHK
The assay can be described thus: scanMAX binding assay, CK1γ3. As to conditions: Percent of Control; legend and method: 1 μM; read-out: CK1γ3 PoC @ 1 µM.
Description: as §2

Assay [4] concerns the target T1, CK1γ1. The assay can be described thus: scanMAX binding assay, CK1γ1. Conditions: Percent of Control; legend and method: 1 μM; read-out: CK1γ1 PoC @ 1 µM.
Description: as §2

Another assay concerns the target CSNK1D (Homo sapiens, UniProt P48730). Nature of the assay: scanMAX binding assay, CSNK1D. As to conditions: Percent of Control; legend and method: 1 μM; read-out: CSNK1D PoC @ 1 µM.
Description: as §2

In another assay the target is T5, CSNK1E (Homo sapiens, UniProt P49674).
T5 construct: purchased Eurofins DiscoverX Corporation
T5 sequence (P49674 whole entry): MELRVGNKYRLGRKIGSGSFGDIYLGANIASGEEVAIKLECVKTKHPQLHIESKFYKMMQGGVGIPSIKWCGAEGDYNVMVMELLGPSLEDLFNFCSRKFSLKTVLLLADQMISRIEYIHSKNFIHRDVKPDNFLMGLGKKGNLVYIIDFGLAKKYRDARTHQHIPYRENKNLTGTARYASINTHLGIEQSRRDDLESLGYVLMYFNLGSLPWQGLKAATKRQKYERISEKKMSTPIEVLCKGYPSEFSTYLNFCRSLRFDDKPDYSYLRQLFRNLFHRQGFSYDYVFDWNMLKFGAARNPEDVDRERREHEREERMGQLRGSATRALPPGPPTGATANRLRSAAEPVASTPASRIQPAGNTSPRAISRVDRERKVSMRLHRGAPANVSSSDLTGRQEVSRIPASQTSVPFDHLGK
The assay can be described thus: scanMAX binding assay, CSNK1E. As to conditions: Percent of Control; legend and method: 1 μM; read-out: CSNK1E PoC @ 1 µM.
Description: as §2

A further assay concerns the target T6, CIT (Homo sapiens, UniProt O14578).
T6 construct: purchased Eurofins DiscoverX Corporation
The assay can be described thus: scanMAX binding assay, CIT. Conditions: Percent of Control; legend and method: 1 μM; read-out: CIT PoC @ 1 µM.
Description: as §2

A further assay concerns the target T7, IRAK1 (Homo sapiens, UniProt P51617).
T7 construct: purchased Eurofins DiscoverX Corporation
Nature of the assay: scanMAX binding assay, IRAK1. Conditions: Percent of Control; legend and method: 1 μM; read-out: IRAK1 PoC @ 1 µM.
Description: as §2

The target of a further assay is CSNK1A1 (Homo sapiens, UniProt P48729). The assay can be described thus: scanMAX binding assay, CSNK1A1. Conditions: Percent of Control; legend and method: 1 μM; read-out: CSNK1A1 PoC @ 1 µM.
CSNK1A1, sequence (P48729 whole entry): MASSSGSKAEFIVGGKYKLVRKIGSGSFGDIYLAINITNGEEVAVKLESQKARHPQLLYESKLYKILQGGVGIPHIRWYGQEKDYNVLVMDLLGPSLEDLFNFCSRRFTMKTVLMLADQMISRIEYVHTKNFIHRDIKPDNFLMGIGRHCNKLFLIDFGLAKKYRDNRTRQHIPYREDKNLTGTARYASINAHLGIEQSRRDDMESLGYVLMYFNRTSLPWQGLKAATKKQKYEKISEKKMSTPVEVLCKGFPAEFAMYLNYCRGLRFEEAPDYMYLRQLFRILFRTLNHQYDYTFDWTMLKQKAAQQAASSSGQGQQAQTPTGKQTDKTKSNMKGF
Description: as §2

A further assay has as its target T8, TAK1 (Homo sapiens, UniProt O43318).
T8 construct: purchased Eurofins DiscoverX Corporation (scanMAX)
Nature of the assay: scanMAX binding assay, TAK1. Conditions: Percent of Control; legend and method: 1 μM; read-out: TAK1 PoC @ 1 µM.
Description: as §2

In a further assay the target is T9, CLK2 (Homo sapiens, UniProt P49760).
T9 construct: purchased Eurofins DiscoverX Corporation (scanMAX)
The assay can be described thus: scanMAX binding assay, CLK2. Conditions: Percent of Control; legend and method: 1 μM; read-out: CLK2 PoC @ 1 µM.
Description: as §2

Assay [5] relates to BAR reporter (β-catenin-dependent WNT signaling). Nature of the assay: BAR luciferase transcriptional reporter assay in HEK293T B/R cells. In kind it is cell-based, human. As to conditions: HEK293T B/R cells transfected 14 h, 0.1, 1.0 or 10 μM FP1 for 18 h. The procedure: All luciferase reporter assays were performed as previously described ([15], [43]). […] In both loss-of-function and gain-of-function experiments, treatments (WNT3A CM or drug) were added 18 h before harvesting cells. Conditions were plated in triplicate, and Renilla normalized values were averaged across triplicates to yield the data presented and standard error. Each assay was repeated in biological triplicate, unless otherwise stated. Firefly luciferase and the Renilla control were detected using the Promega Dual-Luciferase Reporter Assay System per the manufacturer’s protocol (Promega; catalog no.: E1960). Plates were read on the Victor Nivo plate reader (PerkinElmer).

The test system of a further assay is β-catenin. Nature of the assay: W. blot of β-catenin stabilization after WNT3A in RKO cells. The format is cell-based, human. Conditions: RKO cells pretreated 1 h, WNT3A 30 or 60 min, compared with dimethyl sulfoxide control. The procedure: (§3) Standard W. blot techniques were utilized and performed as previously described ([15], [43]). Briefly, cells were lysed in RIPA lysis buffer, flash frozen on dry ice, and then cleared at high speed for 10 min at maximum speed. Protein concentration was determined by a bicinchoninic acid assay following kit specifications. Samples were balanced, and NuPAGE 4× SDS loading buffer (Thermo Fisher Scientific; catalog no.: NP0007) containing DTT was added to each sample and heated for 10 min at 70 °C. Samples were run on a NuPAGE 4 to 12% Bis–Tris Protein Gel (Thermo Fisher Scientific; catalog no.: NP0321) and then transferred to a nitrocellulose membrane. The membrane was then blocked and incubated overnight with primary antibody at 4 °C with rotation, washed with Tris-buffered saline with Tween-20, incubated with secondary antibody, washed with Tris-buffered saline with Tween-20, and imaged. Images were taken using a LiCOR Odyssey CLx imager and quantified with LiCOR software (LiCOR Biosciences). All antibodies were used at a concentration of 1:1000, with the exception of loading controls, which were used at 1:10,000. […]

The next assay relates to LRP6. The assay can be described thus: W. blot of LRP6 phosphorylation after WNT3A in RKO cells. Conditions: RKO cells pretreated 1 h. In kind it is cell-based, human. The procedure:
as §3

T1 sequence (Q9HCP0 whole entry): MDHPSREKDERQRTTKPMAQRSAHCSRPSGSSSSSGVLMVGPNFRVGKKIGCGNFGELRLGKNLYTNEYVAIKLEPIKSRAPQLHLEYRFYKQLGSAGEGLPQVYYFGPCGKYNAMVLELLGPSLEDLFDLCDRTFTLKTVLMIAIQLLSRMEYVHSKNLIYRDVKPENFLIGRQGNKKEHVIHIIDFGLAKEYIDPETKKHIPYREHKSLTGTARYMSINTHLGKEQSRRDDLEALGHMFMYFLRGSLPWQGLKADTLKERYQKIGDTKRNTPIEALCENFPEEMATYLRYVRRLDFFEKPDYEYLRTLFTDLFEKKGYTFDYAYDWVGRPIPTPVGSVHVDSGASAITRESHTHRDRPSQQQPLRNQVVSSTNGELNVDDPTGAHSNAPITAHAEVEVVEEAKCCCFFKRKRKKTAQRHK
T6 sequence (O14578 whole entry): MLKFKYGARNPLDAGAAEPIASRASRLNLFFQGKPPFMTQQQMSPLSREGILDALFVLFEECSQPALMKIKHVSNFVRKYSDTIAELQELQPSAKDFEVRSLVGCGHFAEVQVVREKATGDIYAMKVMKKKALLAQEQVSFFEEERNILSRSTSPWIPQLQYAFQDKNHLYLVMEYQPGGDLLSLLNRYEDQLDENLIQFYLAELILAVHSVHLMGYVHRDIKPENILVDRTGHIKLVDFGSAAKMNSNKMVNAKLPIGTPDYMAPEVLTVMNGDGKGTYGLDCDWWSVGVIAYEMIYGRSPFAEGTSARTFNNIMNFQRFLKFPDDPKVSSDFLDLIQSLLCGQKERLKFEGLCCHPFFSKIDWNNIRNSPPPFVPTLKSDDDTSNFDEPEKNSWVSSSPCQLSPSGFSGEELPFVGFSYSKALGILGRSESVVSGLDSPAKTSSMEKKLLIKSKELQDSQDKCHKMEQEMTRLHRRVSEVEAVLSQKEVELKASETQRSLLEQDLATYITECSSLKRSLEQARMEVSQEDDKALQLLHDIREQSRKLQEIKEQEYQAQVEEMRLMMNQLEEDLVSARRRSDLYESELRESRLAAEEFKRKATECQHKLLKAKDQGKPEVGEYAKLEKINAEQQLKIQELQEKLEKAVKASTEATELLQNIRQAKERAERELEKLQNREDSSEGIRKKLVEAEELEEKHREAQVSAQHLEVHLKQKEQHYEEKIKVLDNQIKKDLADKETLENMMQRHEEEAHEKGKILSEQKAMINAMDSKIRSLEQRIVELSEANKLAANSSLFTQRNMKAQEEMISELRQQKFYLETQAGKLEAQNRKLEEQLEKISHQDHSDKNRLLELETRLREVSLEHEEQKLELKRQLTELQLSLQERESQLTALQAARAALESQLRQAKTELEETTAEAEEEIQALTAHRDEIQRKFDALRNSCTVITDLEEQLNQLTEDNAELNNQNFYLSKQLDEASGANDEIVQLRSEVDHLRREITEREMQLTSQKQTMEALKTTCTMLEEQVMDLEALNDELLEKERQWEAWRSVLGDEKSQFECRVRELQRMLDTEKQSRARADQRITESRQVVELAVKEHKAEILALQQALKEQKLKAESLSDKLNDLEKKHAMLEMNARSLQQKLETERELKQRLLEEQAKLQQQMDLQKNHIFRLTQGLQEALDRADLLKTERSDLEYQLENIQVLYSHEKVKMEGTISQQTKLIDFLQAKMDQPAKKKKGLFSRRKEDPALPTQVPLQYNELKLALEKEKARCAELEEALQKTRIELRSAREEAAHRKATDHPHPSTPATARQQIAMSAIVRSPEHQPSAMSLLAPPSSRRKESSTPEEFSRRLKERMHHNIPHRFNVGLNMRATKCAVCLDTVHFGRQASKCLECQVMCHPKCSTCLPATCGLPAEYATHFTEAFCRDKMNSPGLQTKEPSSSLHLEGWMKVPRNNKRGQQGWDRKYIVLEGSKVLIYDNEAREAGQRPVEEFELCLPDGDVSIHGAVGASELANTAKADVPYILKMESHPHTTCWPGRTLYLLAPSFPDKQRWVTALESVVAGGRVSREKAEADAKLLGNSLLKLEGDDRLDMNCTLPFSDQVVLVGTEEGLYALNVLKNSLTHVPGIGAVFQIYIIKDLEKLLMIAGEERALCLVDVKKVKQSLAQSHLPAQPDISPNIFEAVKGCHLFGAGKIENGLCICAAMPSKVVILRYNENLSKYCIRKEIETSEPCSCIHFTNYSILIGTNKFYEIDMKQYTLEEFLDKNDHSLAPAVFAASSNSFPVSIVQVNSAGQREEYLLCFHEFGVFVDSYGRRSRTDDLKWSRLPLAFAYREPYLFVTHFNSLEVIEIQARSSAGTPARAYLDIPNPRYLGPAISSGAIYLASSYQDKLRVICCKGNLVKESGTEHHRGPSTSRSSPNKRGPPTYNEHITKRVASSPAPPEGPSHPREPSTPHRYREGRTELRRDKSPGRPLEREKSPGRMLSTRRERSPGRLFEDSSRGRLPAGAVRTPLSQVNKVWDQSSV
CSNK1D, sequence (P48730 whole entry): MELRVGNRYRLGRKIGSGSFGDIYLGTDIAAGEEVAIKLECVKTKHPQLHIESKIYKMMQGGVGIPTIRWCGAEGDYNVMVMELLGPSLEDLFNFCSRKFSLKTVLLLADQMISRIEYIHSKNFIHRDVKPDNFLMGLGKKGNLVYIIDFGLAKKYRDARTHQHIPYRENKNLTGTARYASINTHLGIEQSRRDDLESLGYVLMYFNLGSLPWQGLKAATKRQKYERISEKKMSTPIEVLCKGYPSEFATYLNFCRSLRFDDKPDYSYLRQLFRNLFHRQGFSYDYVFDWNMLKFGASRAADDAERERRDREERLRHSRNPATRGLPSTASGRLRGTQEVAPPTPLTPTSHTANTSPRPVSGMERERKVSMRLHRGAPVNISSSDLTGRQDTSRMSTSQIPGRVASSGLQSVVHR

Consider `COc1cnc(COc2ccc(F)c(F)c2)cc1-c1cc2c([nH]1)CCNC2=O` [FP1-24-2, 2-(2-((3,4-difluorophenoxy)methyl)-5-methoxypyridin-4-yl)-1,5,6,7-tetrahydro-4H-pyrrolo[3,2-c]pyridin-4-one], for which the pIC50 (in general, the negative decadic logarithm of the IC50, by convention in mol/L) was > 7.82 and 8.28 against CK1γ1 [1]; > 7.82 and 8.65 against CK1γ2 [2]. In addition, the “GSK3β PoC @ 1 µM” value on GSK3β is given as “did not inhibit”. Besides, the remaining binding at 1 µM was 4.3% at CK1γ2 [3]; 0.9% on CK1γ3; 8.5% at CK1γ1 [4]; 0% on CSNK1D; 0.3% on CSNK1E; 0.6% on CIT. Moreover, the remaining binding at 1 µM on IRAK1 amounted to 1.1%; on CSNK1A1, 3.1%; on TAK1, 6.9%; on CLK2 it was 7.2%. Further, the “BAR activity with CK1γ3 overexpression” value in [5] is given as “decrease”. The β-catenin stabilization result with β-catenin was “diminished”. Moreover, the “phosphorylation of LRP6 at site S1490” value in the assay with LRP6 (WNT3A 30 or 60 min, compared with dimethyl sulfoxide control) is “diminished”. In addition, in the assay on LRP6 (then exposed to WNT3A 30 or 60 min), the “LRP6 phosphorylation at T1479” value was “did not increase”.

The record behind these values is paper PMC9157009, “Protein proximity networks and functional evaluation of the casein kinase 1 gamma family reveal unique roles for CK1γ3 in WNT signaling” (The Journal of Biological Chemistry, 2022).
